Experimental data as given in patent publication US20200207759A1, “NEW PROPANAMINE DERIVATIVES FOR TREATING PAIN AND PAIN RELATED CONDITIONS” (ESTEVE PHARMACEUTICALS, S.A., priority 2017, published 2020).

Legend:
[1] = biological target: Human norepinephrine transporter (NET) (Homo sapiens, UniProt P23975); assay: Binding assay to human norepinephrine transporter (NET), [3H]-Nisoxetin; conditions: human NET enriched membranes, 5 nM [3H]-Nisoxetin; read-out: Ki (nM) NET Hum
Protocol: Binding Assay to Human Norepinephrine Transporter (NET).
Human norepinephrine transporter (NET) enriched membranes (5 μg) were incubated with 5 nM of radiolabeled [3H]-Nisoxetin in assay buffer containing 50 mM Tris-HCl, 120 mM NaCl, 5 mM KCl, pH 7.4.
NSB (non specific binding) was measured by adding 1 μM. After 60 min incubation at 4° C., binding reaction was terminated by filtering through Multiscreen GF/C (Millipore) presoaked in 0.5% polyethyleneimine in Vacuum Manifold Station, followed by 3 washes with ice-cold filtration buffer containing 50 mM Tris-HCl, 0.9% NaCl, pH 7.4. Filter plates were dried at 60° C. for 1 hour and 30 μl of scintillation cocktail were added to each well before radioactivity reading.

[2] = biological target: Human α2δ-1 subunit of Cav2.2 calcium channel (Homo sapiens, UniProt P54289); assay: Binding assay to human α2δ-1 subunit of Cav2.2 calcium channel, [3H]-Gabapentin; conditions: human α2δ-1 enriched membranes, 15 nM [3H]-Gabapentin; read-out: Ki (nM) alpha2delta Hum
Protocol: Binding Assay to Human α2δ-1 Subunit of Cav2.2 Calcium Channel.
Human α2δ-1 enriched membranes (2.5 μg) were incubated with 15 nM of radiolabeled [3H]-Gabapentin in assay buffer containing Hepes-KOH 10 mM, pH 7.4.
NSB (non specific binding) was measured by adding 10 μM pregabalin. After 60 min incubation at 27° C., binding reaction was terminated by filtering through Multiscreen GF/C (Millipore) presoaked in 0.5% polyethyleneimine in Vacuum Manifold Station, followed by 3 washes with ice-cold filtration buffer containing 50 mM Tris-HCl, pH 7.4.
Filter plates were dried at 60° C. for 1 hour and 30 μl of scintillation cocktail were added to each well before radioactivity reading.
Readings were performed in a Trilux 1450 Microbeta radioactive counter (Perkin Elmer).

Human α2δ-1 subunit of Cav2.2 calcium channel, sequence (P54289 25-1103): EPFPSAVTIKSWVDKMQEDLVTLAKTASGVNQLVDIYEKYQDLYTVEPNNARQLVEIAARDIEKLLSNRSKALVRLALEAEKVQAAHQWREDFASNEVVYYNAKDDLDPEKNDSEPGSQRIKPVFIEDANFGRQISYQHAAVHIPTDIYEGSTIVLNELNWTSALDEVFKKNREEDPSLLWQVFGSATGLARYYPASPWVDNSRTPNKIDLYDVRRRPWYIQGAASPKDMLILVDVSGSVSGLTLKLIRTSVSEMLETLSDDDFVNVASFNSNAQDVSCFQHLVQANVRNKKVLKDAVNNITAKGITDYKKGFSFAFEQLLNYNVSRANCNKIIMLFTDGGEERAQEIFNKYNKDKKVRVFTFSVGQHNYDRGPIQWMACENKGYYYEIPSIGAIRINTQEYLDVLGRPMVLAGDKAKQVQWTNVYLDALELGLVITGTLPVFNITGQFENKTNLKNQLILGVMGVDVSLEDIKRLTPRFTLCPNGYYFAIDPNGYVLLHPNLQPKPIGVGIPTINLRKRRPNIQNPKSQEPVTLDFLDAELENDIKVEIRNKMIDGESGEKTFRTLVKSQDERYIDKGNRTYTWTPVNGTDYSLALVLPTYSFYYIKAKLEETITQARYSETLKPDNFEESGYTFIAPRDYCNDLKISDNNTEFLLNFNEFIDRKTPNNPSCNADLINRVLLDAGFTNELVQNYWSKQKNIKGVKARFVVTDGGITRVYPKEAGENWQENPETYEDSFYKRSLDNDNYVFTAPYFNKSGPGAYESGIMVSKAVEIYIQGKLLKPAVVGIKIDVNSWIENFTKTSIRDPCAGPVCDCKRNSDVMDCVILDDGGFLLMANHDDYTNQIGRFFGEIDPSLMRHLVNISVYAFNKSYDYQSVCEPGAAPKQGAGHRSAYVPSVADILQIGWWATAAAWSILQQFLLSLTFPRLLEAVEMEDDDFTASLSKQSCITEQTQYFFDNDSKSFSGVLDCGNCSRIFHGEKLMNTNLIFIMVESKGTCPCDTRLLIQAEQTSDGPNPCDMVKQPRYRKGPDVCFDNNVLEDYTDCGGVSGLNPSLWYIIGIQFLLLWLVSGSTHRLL
Human norepinephrine transporter (NET), sequence (P23975 whole entry): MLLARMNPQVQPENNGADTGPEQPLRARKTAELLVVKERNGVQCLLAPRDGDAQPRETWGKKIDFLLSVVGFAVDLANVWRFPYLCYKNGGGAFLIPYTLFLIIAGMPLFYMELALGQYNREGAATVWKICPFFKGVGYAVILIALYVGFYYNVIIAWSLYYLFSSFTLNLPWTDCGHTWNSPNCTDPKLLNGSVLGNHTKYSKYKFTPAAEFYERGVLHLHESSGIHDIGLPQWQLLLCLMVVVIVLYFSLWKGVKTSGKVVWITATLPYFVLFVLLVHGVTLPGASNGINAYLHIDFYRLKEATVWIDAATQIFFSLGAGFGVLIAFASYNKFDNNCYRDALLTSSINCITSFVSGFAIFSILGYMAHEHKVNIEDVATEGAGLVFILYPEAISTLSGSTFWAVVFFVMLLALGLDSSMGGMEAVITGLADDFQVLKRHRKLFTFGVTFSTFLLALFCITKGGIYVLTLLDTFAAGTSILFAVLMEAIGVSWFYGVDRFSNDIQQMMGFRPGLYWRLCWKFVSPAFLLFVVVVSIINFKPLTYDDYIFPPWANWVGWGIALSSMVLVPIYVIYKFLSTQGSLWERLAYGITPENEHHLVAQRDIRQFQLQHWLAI

Row | Compound | Ki [1] [nM] | Ki [2] [nM]
1 | CNCCC(c1ccsc1)N1CCc2ccccc21 (racemic) [Example 78, 3-(Indolin-1-yl)-N-methyl-3-(thiophen-3-yl)propan-1-amine] | < 100 | ≥ 3000
2 | CNCC[C@H](c1ccsc1)N1CC(C)(C)c2nc(C(F)(F)F)ccc21 (racemic) [Example 79, 3-(3,3-Dimethyl-5-(trifluoromethyl)-2,3-dihydro-1H-pyrrolo[3,2-b]pyridin-1-yl)-N-methyl-3-(thiophen-3-yl)propan-1-amine] | > 1000 | 100 to 500
3 | CNCCC(c1ccsc1)N1CC(C)(C)c2ncc(Cl)cc21 (racemic) [Example 80, 3-(6-Chloro-3,3-dimethyl-2,3-dihydro-1H-pyrrolo[3,2-b]pyridin-1-yl)-N-methyl-3-(thiophen-3-yl)propan-1-amine] | > 1000 | 100 to 500
4 | CNCCC(c1cccs1)N1CC(C)(C)c2ncc(C)cc21 (racemic) [Example 81, N-methyl-3-(thiophen-2-yl)-3-(3,3,6-trimethyl-2,3-dihydro-1H-pyrrolo[3,2-b]pyridin-1-yl)propan-1-amine] | > 1000 | < 100
5 | CCC1(CC)CN(C(CCNC)c2ccsc2)c2cccnc21 (racemic) [Example 86, 3-(3,3-Diethyl-2,3-dihydro-1H-pyrrolo[3,2-b]pyridin-1-yl)-N-methyl-3-(thiophen-3-yl)propan-1-amine] | > 1000 | 500 to 3000
6 | CNCC[C@@H](c1cccs1)N1c2ccccc2C[C@@H]1C (racemic) [Example 119, (S/R)—N-methyl-3-((S/R)-2-methylindolin-1-yl)-3-(thiophen-2-yl)propan-1-amine] | > 1000 | ≥ 3000
7 | CNCCC(c1cccs1)N1CCc2ccccc21 (centres unmarked) [Example 1, 3-(Indolin-1-yl)-N-methyl-3-(thiophen-2-yl)propan-1-amine] | < 100 | 500 to 3000
8 | CNCCC(c1cccs1)N1CCc2ccncc21 (centres unmarked) [Example 2, 3-(2,3-Dihydro-1H-pyrrolo[2,3-c]pyridin-1-yl)-N-methyl-3-(thiophen-2-yl)propan-1-amine] | > 1000 | 500 to 3000
9 | CNCCC(c1cccs1)N1CCc2ncccc21 (centres unmarked) [Example 3, 3-(2,3-Dihydro-1H-pyrrolo[3,2-b]pyridin-1-yl)-N-methyl-3-(thiophen-2-yl)propan-1-amine] | 500 to 1000 | 500 to 3000
10 | CNCCC(c1cccs1)N1CCCc2ccccc21 (centres unmarked) [Example 4, 3-(3,4-Dihydroquinolin-1(2H)-yl)-N-methyl-3-(thiophen-2-yl)propan-1-amine] | 100 to 500 | ≥ 3000
11 | CNCCC(c1cccs1)N1CCCc2ncccc21 (centres unmarked) [Example 5, 3-(3,4-Dihydro-1,5-naphthyridin-1(2H)-yl)-N-methyl-3-(thiophen-2-yl)propan-1-amine] | > 1000 | 100 to 500
12 | CNCCC(c1ccc(F)s1)N1CCc2ncccc21 (centres unmarked) [Example 6, 3-(2,3-Dihydro-1H-pyrrolo[3,2-b]pyridin-1-yl)-3-(5-fluorothiophen-2-yl)-N-methylpropan-1-amine] | 500 to 1000 | 500 to 3000
13 | CNCCC(c1ccccc1)N1CCc2ncccc21 (centres unmarked) [Example 7, 3-(2,3-Dihydro-1H-pyrrolo[3,2-b]pyridin-1-yl)-N-methyl-3-phenylpropan-1-amine] | 500 to 1000 | ≥ 3000
14 | CCNCCC(c1cccs1)N1CCc2ncccc21 (centres unmarked) [Example 8, 3-(2,3-Dihydro-1H-pyrrolo[3,2-b]pyridin-1-yl)-N-ethyl-3-(thiophen-2-yl)propan-1-amine] | > 1000 | 100 to 500
15 | NCCC(c1cccs1)N1CCc2ncccc21 (centres unmarked) [Example 9, 3-(2,3-Dihydro-1H-pyrrolo[3,2-b]pyridin-1-yl)-3-(thiophen-2-yl)propan-1-amine] | > 1000 | ≥ 3000
16 | CNCCC(c1ccsc1)N1CCc2ncccc21 (centres unmarked) [Example 10, 3-(2,3-Dihydro-1H-pyrrolo[3,2-b]pyridin-1-yl)-N-methyl-3-(thiophen-3-yl)propan-1-amine] | 100 to 500 | 100 to 500
17 | CNCCC(c1cccs1)N1CCc2nc(C)ccc21 (centres unmarked) [Example 11, N-methyl-3-(5-methyl-2,3-dihydro-1H-pyrrolo[3,2-b]pyridin-1-yl)-3-(thiophen-2-yl)propan-1-amine] | 500 to 1000 | 100 to 500

Row | Compound | Ki [1] [nM] | Ki [2] [nM]
18 | CNCCC(c1cccs1)N1CC(C)(C)c2ncccc21 (centres unmarked) [Example 12, 3-(3,3-Dimethyl-2,3-dihydro-1H-pyrrolo[3,2-b]pyridin-1-yl)-N-methyl-3-(thiophen-2-yl)propan-1-amine] | 500 to 1000 | 100 to 500
19 | CNCCC(c1ccsc1)N1CC(C)(C)c2ncccc21 (centres unmarked) [Example 13, 3-(3,3-Dimethyl-2,3-dihydro-1H-pyrrolo[3,2-b]pyridin-1-yl)-N-methyl-3-(thiophen-3-yl)propan-1-amine] | 500 to 1000 | 500 to 3000
20 | CNCCC(c1ccsc1)N1CCc2ncc(C)cc21 (centres unmarked) [Example 14, N-methyl-3-(6-methyl-2,3-dihydro-1H-pyrrolo[3,2-b]pyridin-1-yl)-3-(thiophen-3-yl)propan-1-amine] | 500 to 1000 | 100 to 500
21 | CN(C)CCC(c1cccs1)N1CCc2ncccc21 (centres unmarked) [Example 15, 3-(2,3-Dihydro-1H-pyrrolo[3,2-b]pyridin-1-yl)-N,N-dimethyl-3-(thiophen-2-yl)propan-1-amine] | > 1000 | ≥ 3000
22 | CNCC[C@@H](c1cccs1)N1CCc2ncccc21 [Example 16, (S)-3-(2,3-Dihydro-1H-pyrrolo[3,2-b]pyridin-1-yl)-N-methyl-3-(thiophen-2-yl)propan-1-amine] | 100 to 500 | 100 to 500
23 | CNCC[C@H](c1cccs1)N1CCc2ncccc21 [Example 17, (R)-3-(2,3-dihydro-1H-pyrrolo[3,2-b]pyridin-1-yl)-N-methyl-3-(thiophen-2-yl)propan-1-amine] | 100 to 500 | 500 to 3000
24 | CNCC[C@H](c1ccc(F)s1)N1CCc2ncccc21 [Example 18, (R)-3-(2,3-Dihydro-1H-pyrrolo[3,2-b]pyridin-1-yl)-3-(5-fluorothiophen-2-yl)-N-methylpropan-1-amine] | 500 to 1000 | 500 to 3000
25 | CNCC[C@@H](c1ccc(F)s1)N1CCc2ncccc21 [Example 19, (S)-3-(2,3-dihydro-1H-pyrrolo[3,2-b]pyridin-1-yl)-3-(5-fluorothiophen-2-yl)-N-methylpropan-1-amine] | 500 to 1000 | 100 to 500
26 | CNCC[C@H](c1cccs1)N1CC(C)(C)c2ncccc21 [Example 20, (R)-3-(3,3-Dimethyl-2,3-dihydro-1H-pyrrolo[3,2-b]pyridin-1-yl)-N-methyl-3-(thiophen-2-yl)propan-1-amine] | > 1000 | 100 to 500
27 | CNCC[C@@H](c1cccs1)N1CC(C)(C)c2ncccc21 [Example 21, (S)-3-(3,3-dimethyl-2,3-dihydro-1H-pyrrolo[3,2-b]pyridin-1-yl)-N-methyl-3-(thiophen-2-yl)propan-1-amine] | 100 to 500 | 500 to 3000
28 | CNCC[C@H](c1ccsc1)N1CCc2ncccc21 [Example 22, (R)-3-(2,3-Dihydro-1H-pyrrolo[3,2-b]pyridin-1-yl)-N-methyl-3-(thiophen-3-yl)propan-1-amine] | > 1000 | 500 to 3000
29 | CNCC[C@@H](c1ccsc1)N1CCc2ncccc21 [Example 23, (S)-3-(2,3-Dihydro-1H-pyrrolo[3,2-b]pyridin-1-yl)-N-methyl-3-(thiophen-3-yl)propan-1-amine] | 100 to 500 | 100 to 500
30 | CNCC[C@H](c1ccsc1)N1CC(C)(C)c2ncccc21 [Example 24, (R)-3-(3,3-Dimethyl-2,3-dihydro-1H-pyrrolo[3,2-b]pyridin-1-yl)-N-methyl-3-(thiophen-3-yl)propan-1-amine] | > 1000 | 100 to 500
31 | CNCC[C@@H](c1ccsc1)N1CC(C)(C)c2ncccc21 [Example 25, (S)-3-(3,3-Dimethyl-2,3-dihydro-1H-pyrrolo[3,2-b]pyridin-1-yl)-N-methyl-3-(thiophen-3-yl)propan-1-amine] | 100 to 500 | 500 to 3000
32 | CCNCCC(c1cccs1)N1CC(C)(C)c2ncc(C#N)cc21 (centres unmarked) [Example 101, 1-(3-(Ethylamino)-1-(thiophen-2-yl)propyl)-3,3-dimethyl-2,3-dihydro-1H-pyrrolo[3,2-b]pyridine-6-carbonitrile] | – | < 100
33 | CNCC[C@@H](c1cccs1)N1CC(C)(C)c2ncc(C#N)cc21 [Example 115, (S)-3,3-Dimethyl-1-(3-(methylamino)-1-(thiophen-2-yl)propyl)-2,3-dihydro-1H-pyrrolo[3,2-b]pyridine-6-carbonitrile] | – | < 100
34 | CNCC[C@H](c1cccs1)N1CC(C)(C)c2ncc(C#N)cc21 [Example 116, (R)-3,3-dimethyl-1-(3-(methylamino)-1-(thiophen-2-yl)propyl)-2,3-dihydro-1H-pyrrolo[3,2-b]pyridine-6-carbonitrile] | – | 500 to 3000
